Columns and labels:
human delta receptor [1] = biological target: T1, human delta receptor (Homo sapiens, UniProt P41143); assay: Opioid receptor binding affinity, [3H]Cl-DPDPE, CHO cell membranes
T1 construct: expressed in transfected cells; host or cells: CHO cells

human kappa receptor [2] = biological target: T2, human kappa receptor (Homo sapiens, UniProt P41145); assay: Opioid receptor binding affinity, [3H]U69593, CHO cell membranes
T2 construct: expressed in transfected cells; host or cells: CHO cells

human delta receptor [3] = biological target: T1, human delta receptor; assay: [35S]GTP γS binding functional assay, CHO cell membranes; format: biochemical
human kappa receptor [4] = biological target: T2, human kappa receptor; assay: as above; format: biochemical; conditions: 1 hr at 25 C

T1 sequence (P41143 whole entry): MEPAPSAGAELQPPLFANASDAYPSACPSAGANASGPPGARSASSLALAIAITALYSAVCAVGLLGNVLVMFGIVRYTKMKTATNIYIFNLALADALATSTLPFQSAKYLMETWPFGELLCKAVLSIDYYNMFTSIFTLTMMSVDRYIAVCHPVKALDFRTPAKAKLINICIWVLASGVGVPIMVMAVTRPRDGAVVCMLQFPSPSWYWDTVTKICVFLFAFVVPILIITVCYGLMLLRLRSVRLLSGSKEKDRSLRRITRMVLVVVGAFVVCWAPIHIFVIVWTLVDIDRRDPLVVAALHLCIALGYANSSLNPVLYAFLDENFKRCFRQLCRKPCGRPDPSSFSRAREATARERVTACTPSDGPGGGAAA
T2 sequence (P41145 whole entry): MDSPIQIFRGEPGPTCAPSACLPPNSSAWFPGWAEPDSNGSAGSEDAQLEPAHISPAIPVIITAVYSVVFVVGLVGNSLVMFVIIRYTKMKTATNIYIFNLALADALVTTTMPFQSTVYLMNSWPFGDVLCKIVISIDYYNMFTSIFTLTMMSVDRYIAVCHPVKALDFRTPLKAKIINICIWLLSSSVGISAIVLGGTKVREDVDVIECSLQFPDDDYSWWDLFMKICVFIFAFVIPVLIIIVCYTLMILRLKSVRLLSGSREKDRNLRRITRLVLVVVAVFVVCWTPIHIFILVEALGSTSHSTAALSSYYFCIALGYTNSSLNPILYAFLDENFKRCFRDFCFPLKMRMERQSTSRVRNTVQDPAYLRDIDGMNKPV

SMILES: C[C@H](C1CC1)N1CC[C@]23CCCC[C@H]2[C@H]1Cc1ccc(O)cc13 [Compound 5]
- Ki (human delta receptor [1]): 2.47 ± 0.1 nM
- Ki (human kappa receptor [2]): 0.29 ± 0.1 nM
- EC50 (human delta receptor [3]): 9.01 ± 2.6 nM
- percent stimulation at the delta receptor (human delta receptor [3]; [35S]GTP γS, 1 hr at 25 C): 39.8±3.9%
- percent stimulation at the kappa receptor (human kappa receptor [4]): 41.7±5.0%

Reference: patent publication US8987293B2, “Morphinans useful as analgesics” (Phoenix Pharmalabs, Inc., priority 2010, dated 2015)
